Key:
S.Tm = experiment: Swimming assay in soft agar (proton motive force); format: cell-based, Salmonella enterica serovar Typhimurium; details: 50 mM, 10 μl on disk (500×, 125×, ~62.5× the MIC for EPM30, EPM35, EPM43)
wild-type S.Tm = experiment: Growth in broth with antimicrobial peptides (polymyxin B, LL-37) and EPMs; format: cell-based, Salmonella enterica serovar Typhimurium; details: polymyxin B 5 μg/ml (⅛ MIC) + 25 μM EPM
From the text: Next, it was investigated how EPMs might lead to bacterial clearance within host cells. […] Instead, EPMs may synergize with a host antimicrobial(s) that is effluxed by EPs. Two S.Tm EPs are necessary for infection of macrophages and mice (FIG. 10). The first EP, MacAB, is important for defense against ROS. The second S.Tm EP, AcrAB, is a homolog of MtrCDE, an EP in Neisseria gonorrhoeae which exports host antimicrobial peptides (AMPs). AcrAB thus likely exports AMPs as well as a variety of other substrates including antibiotics, dyes, and detergents. To test whether the EPMs synergize with macrophage defenses, wild-type bacteria was exposed in broth to ROS or AMPs in the presence of EPMs. […] Next, the two AMPs were tested: polymyxin B is a model peptide produced by bacteria; LL-37 is a human cathelicidin produced by macrophages.
Overnight Salmonella cultures were washed 3 times in PBS and diluted to an OD of 0.01 in Mueller Hinton Broth in 96-well flat bottom plates. Compound was added using a pin tool (CyBio) or manually, yielding a final concentration of no more than 1% DMSO. Plates were grown at 37° C. shaking and OD600 was monitored using a BioTek Eon incubator shaker microplate absorbance reader. For experiments in defined media, bacteria were grown in M9 minimal media supplemented with 100 mM Tris pH 7.4, 0.35% glycerol, 0.002% histidine, 10 mM MgCl2, and 0.1% casamino acids. […]

[1] = system: S.Tm infection of C57BL/6 mice; experiment: Mouse infection with S.Tm, tetracycline and EPM35 treatment
Protocol: Finally, whether EPM35 increased sensitivity of 510801 and wild-type S.Tm to tetracycline in vivo was tested. 7-week-old C57BL/6 mice were intraperitoneally infected with 1×10^4 bacteria. At 30 minutes and 24 hours post-infection, 25 mg/kg tetracycline and 50 mg/kg EPM35 was injected. […] Thus, the experiment was ended at 30 hours post-infection; the spleen and liver were harvested and plated to determine bacterial CFU.
These studies were carried out in strict accordance with the recommendations in the Guide for the Care and Use of Laboratory Animals of the National Institutes of Health, and all protocols were approved by the University of Colorado Institutional Committees for Biosafety and for Animal Care and Use. Bacteria were grown overnight in LB, then diluted in PBS. Seven week old C57/B16 female mice were intraperitoneally injected with 1×10^4S.Tm in 100 μL. Thirty minutes later, mice received two intraperitoneal injections: 25 mg/kg tetracycline in 150 μL PBS or PBS alone, and 50 mg/kg EPM35 in 100 μL DMSO or DMSO alone. Drug injections were repeated at 24 hours post-infection. At 30 hours post-infection, mice were humanely euthanized using carbon dioxide asphyxiation followed by cervical dislocation. Spleens and livers were harvested, homogenized, diluted in PBS, and plated to enumerate S.Tm CFUs.

HepG2 human liver cells = experiment: LDH cytotoxicity assay; format: cell-based; details: 16 hours
Protocol: Cytoxocity was determined using the Pierce Lactate Dehydrogenase (LDH) Cytoxicity Assay. HepG2 liver cells were plated at 5×10^4 in 96 well tissue culture plates and allowed to settle overnight. Cells were treated with a 2-fold dilutions of each compound for 16 hours. Fifty microliters of conditioned media was mixed with the LDH assay reagent, incubated for 30 minutes, and absorbance was read at 490 and 680 nm. Curve fitting to determine CC50s was performed using GraphPad Prism; the CC50 is defined as 50% of the maximum LDH release as determined by lysed macrophages. There was no spontaneous LDH release or LDH present in the media.

[2] = Log D, solubility and predicted bioavailability; format: physicochemical; details: aqueous

| SMILES | halo in swimming assay (S.Tm) | growth on co-treatment with polymyxin B (wild-type S.Tm) | signs in treated mice ([1]; 50 mg/kg intraperitoneal at 30 minutes and 24 hours post-infection) | bacterial CFU in spleen and liver, co-treatment with tetracycline ([1]; S10801-infected mice, 25 mg/kg tetracycline + 50 mg/kg EPM35) | enhanced decrease of CFU on co-treatment with tetracycline ([1]; mice infected with wild-type bacteria, 25 mg/kg tetracycline + 50 mg/kg EPM35) | toxicity in HepG2 LDH assays (HepG2 human liver cells) | solubility [2] |
| --- | --- | --- | --- | --- | --- | --- | --- |
| OC(COc1ccc(Cl)c(Cl)c1)CN1CCC(Nc2nccc(C(F)(F)F)n2)CC1 (stereo not drawn) [EPM35] | formed a small halo | completely inhibited growth | Distress was observed | appeared to further reduce bacterial CFU | not observed |  |  |
| Cc1ccc(Sc2cccc3nc(N)nc(N)c23)cc1 [EPM43] | formed no halo | completely inhibited growth |  |  |  | less toxic to HepG2 cells than the other EPMs | poor aqueous solubility |

From patent US11110080B2, “Small molecule inhibitors of bacterial efflux pumps and methods of using same” (The Regents of the University of Colorado, a body Corporate, priority 2017, dated 2021)
